Data taken from paper PMC9652379, “Safety evaluations of a synthetic antimicrobial peptide administered intravenously in rats and dogs” (Scientific Reports, 2022).
In brackets after ≈: the same amount, converted by molar mass. Like-named read-outs stand apart in the source and are kept apart here. Positions of bridges follow the written chain, without caps; N, C: chain ends. Non-standard residues stand in square brackets, D forms with d. Residues, ends and D or L forms follow the SMILES beside them. Chains are numbered I, II in the order given. βAla = NCCC(=O)O

How the values were obtained:
[1] = Toxicokinetics in dogs, 4 weeks daily 1-h iv infusion; assay type: in vivo; conditions: dog; for Cmax / tmax / AUC0-24 / AUC(0-t): iv
Method: Plasma concentrations and the main toxicokinetic parameters of SET-M33 in plasma samples were determined in beagle dogs after intravenous administration of SET-M33 by daily 1-h-infusion at 0.5, 1.5 or 4.0 mg/kg/day or only vehicle for 4 weeks (5 animals/group/sex). Blood samples were taken on day 1 and day 28.
The time when the maximum plasma concentration occurred (Tmax) was at the end of the 1-h infusion in all animals, as expected for this route of administration. Plasma concentrations of SET-M33 at 24 h post-dose were below the limit of quantification (< 20.0 ng/ml) in all animals at all dose levels on day 1 and day 28 (not shown).
On days 1 and 28, blood samples were obtained for toxicokinetic determinations from all animals at the following times: Day 1 at the end of infusion and 5, 10, 15, 30, 60 and 180 min later; […] and 24 h ± 30 min post-dose; Day 28 at the end of infusion and 5, 10, 15, 30, 60 and 180 min later; […] and 24 h ± 30 min post-dose. Blood samples were collected into lithium heparin test tubes and kept in an ice bath until centrifuging (1600 g for 10 min at 2–8 °C). The plasma obtained from each sample was transferred to a fresh polypropylenes test tubes, immediately frozen in dry ice and stored at − 20 °C ± 5. Bioanalytical samples were analysed by a validated liquid chromatographic mass spectrometric assay. Pharmacokinetic parameters were calculated using the computer program Phoenix WinNonlin version 6.3 (Certara USA, Inc).

P. aeruginosa = conditions: cited from earlier work
Sprague Dawley rats = experiment: Dose range finding in rats: haematology, clinical biochemistry, urinalysis; assay type: in vivo, rat; conditions: female rats, 7 days, mean ± SD
Method: Clinical haematology, biochemistry and urinalysis parameters were evaluated in animals in Phase II at the end of the treatment period. A complete list of parameters is reported in Materials and Methods. Administration of SET-M33 at 10 and 20 mg/kg/day for 7 days caused a statistically significant decrease of reticulocytes in males and females. […] There were significant differences in other parameters, such as glucose (males at 10 and 20 mg/kg/day), cholesterol (males at 20 mg/kg/day), triglycerides (females at 20 mg/kg/day), electrolytes, total protein and albumin (males at 20 mg/kg/day). Increased urine volume and lower specific gravity compared to the control group was recorded in both sexes at both doses. […]
Blood samples were drawn from the retro-orbital plexus of all animals under light isoflurane anaesthesia. […] The following parameters were determined using an ADVIA 120 haematology analyser (Siemens Healthcare): Red blood cell count (RBC), haemoglobin (Hb), haematocrit (Hct), mean corpuscular volume (MCV), mean corpuscular haemoglobin (MCH), mean corpuscular haemoglobin concentration (MCHC), reticulocyte count (absolute and relative) (Retic), platelet count (Plt), total leukocyte count (WBC), neutrophils (N), lymphocytes (L), monocytes (M), eosinophils (E), basophils (B), large unstained cells (LUC). […]

K. pneumoniae = conditions: cited from earlier work
[2] = Dose range finding in rats: toxicokinetics; assay type: in vivo, rat; conditions: for quantifiable plasma concentrations until, post-dose: rat, in vivo; for mean AUCt ratio, low vs. high dose (theoretical ratio 2) / mean Cmax ratio, low vs. high dose (theoretical ratio 2): rats, 10 vs 20 mg/kg/day iv bolus
Method: SET-M33 concentration was determined after administration by intravenous bolus for 7 days at 10 mg/kg/day and 20 mg/kg/day. Exposure parameters (AUCt and Cmax) were compared in order to evaluate dose-dependency, accumulation ratio and sex-related differences. […] Mean plasma levels of SET-M33 increased in parallel with dose in males and females. Mean time to maximum concentrations (tmax) were observed immediately after administration, 5 min post-dose for both periods (days 1 and 7) and sexes, coherently with intravenous bolus administration.
Blood samples were collected from the retro-orbital plexus of animals under light isoflurane anaesthesia. Blood samples were taken from three males and three females at each extraction time. Sampling times were as follows: Day 1: 5, 15, 30 and 60 min after administration. Day 7: pre-dose and 5, 15, 30, 60 min and 24 h after administration. Control animals were bled only once on days 1 and 7 of treatment at 30 min after treatment. Each blood sample was collected into a polypropylene test tube containing lithium heparin as anticoagulant and kept in an ice bath until centrifuging (1600 g for 10 min at 2–8 °C). The plasma from each sample was transferred to a fresh polypropylene test tube, immediately frozen in dry ice and stored at − 20 °C ± 5.

mouse = conditions: cited from earlier work
[3] = female, beagle, in vivo, 4 mg/kg/day
[4] = male, beagle, in vivo, 0.5 mg/kg/day
[5] = male, beagle, in vivo, 4 mg/kg/day

With `CC[C@H](C)[C@H](NC(=O)[C@H](CCCCN)NC(=O)[C@@H](N)CCCCN)C(=O)N[C@@H](CCCNC(=N)N)C(=O)N[C@H](C(=O)N[C@@H](CCCNC(=N)N)C(=O)N[C@@H](CC(C)C)C(=O)N[C@@H](CO)C(=O)N[C@@H](C)C(=O)NCCCC[C@H](NC(=O)[C@H](C)NC(=O)[C@H](CO)NC(=O)[C@H](CC(C)C)NC(=O)[C@H](CCCNC(=N)N)NC(=O)[C@@H](NC(=O)[C@H](CCCNC(=N)N)NC(=O)[C@@H](NC(=O)[C@H](CCCCN)NC(=O)[C@@H](N)CCCCN)[C@@H](C)CC)C(C)C)C(=O)NCCCC[C@H](NC(=O)[C@H](CCCCNC(=O)[C@H](C)NC(=O)[C@H](CO)NC(=O)[C@H](CC(C)C)NC(=O)[C@H](CCCNC(=N)N)NC(=O)[C@@H](NC(=O)[C@H](CCCNC(=N)N)NC(=O)[C@@H](NC(=O)[C@H](CCCCN)NC(=O)[C@@H](N)CCCCN)[C@@H](C)CC)C(C)C)NC(=O)[C@H](C)NC(=O)[C@H](CO)NC(=O)[C@H](CC(C)C)NC(=O)[C@H](CCCNC(=N)N)NC(=O)[C@@H](NC(=O)[C@H](CCCNC(=N)N)NC(=O)[C@@H](NC(=O)[C@H](CCCCN)NC(=O)[C@@H](N)CCCCN)[C@@H](C)CC)C(C)C)C(=O)NCCC(=O)O)C(C)C` [SET-M33] (I: H-KKIRVRLSAKK[βAla]-OH / II: H-KKIRVRLSAK / III: H-KKIRVRLSA / IV: H-KKIRVRLSA; amide I:10-IV:C, I:11-II:C, II:10-III:C (inferred); N-terminus and C-terminus assumed) the “Cmax and AUC0-24 relative to values predicted for a linear relationship” value ([1]; in vivo, 4 mg/kg/day) was “approximately 2.1 times”, the Cmax ([1]; in vivo, 0.5 mg/kg/day) was 82.8 ± 19.1 ng/mL and the tmax ([1]; in vivo, 0.5 mg/kg/day) was “EOI”. The tmax ([1]; in vivo, 1.5 mg/kg/day) was “EOI”, the tmax ([1]; in vivo, 4 mg/kg/day) was “EOI” and the AUC0-24 ([1]; female, beagle, in vivo, 0.5 mg/kg/day) was 45.6 ± 10.4 ng·h/mL. The AUC(0-t) ([1]; female, beagle, in vivo, 0.5 mg/kg/day, AUC0-24) was 76.5 ± 25.2 ng·h/mL, the Cmax ([1]; female, beagle, in vivo, 0.5 mg/kg/day, Cmax) was 125 ± 35 ng/mL and the Cmax ([1]; female, beagle, in vivo, 1.5 mg/kg/day) was 345 ± 87 ng/mL. For the same molecule, the Cmax ([1]; female, beagle, in vivo, 1.5 mg/kg/day, Cmax) was 645 ± 121 ng/mL, the AUC0-24 [1, 3] was 991 ± 161 ng·h/mL and the Cmax [1, 3] was 1360 ± 220 ng/mL. The AUC(0-t) ([1]; female, beagle, in vivo, 4 mg/kg/day, AUC0-24) was 1550 ± 450 ng·h/mL, the Cmax ([1]; female, beagle, in vivo, 4 mg/kg/day, Cmax) was 1930 ± 350 ng/mL and the AUC0-24 [1, 4] was 42.2 ± 13.3 ng·h/mL. It also gave a Cmax [1, 4] of 82.4 ± 22.4 ng/mL, an AUC(0-t) ([1]; male, beagle, in vivo, 0.5 mg/kg/day, AUC0-24) of 83 ± 9.8 ng·h/mL and a Cmax ([1]; male, beagle, in vivo, 0.5 mg/kg/day, Cmax) of 149 ± 16 ng/mL. For the same molecule, the Cmax ([1]; male, beagle, in vivo, 1.5 mg/kg/day) was 274 ± 110 ng/mL, the AUC(0-t) ([1]; male, beagle, in vivo, 1.5 mg/kg/day, AUC0-24) was 157 ± 60 ng·h/mL and the Cmax ([1]; male, beagle, in vivo, 1.5 mg/kg/day, Cmax) was 470 ± 218 ng/mL. For the same molecule, the AUC0-24 [1, 5] was 569 ± 99 ng·h/mL, the Cmax [1, 5] was 816 ± 188 ng/mL and the AUC(0-t) ([1]; male, beagle, in vivo, 4 mg/kg/day, AUC0-24) was 1050 ± 150 ng·h/mL. For the same molecule, the Cmax ([1]; male, beagle, in vivo, 4 mg/kg/day, Cmax) was 1490 ± 440 ng/mL, the AUC(0-t) ([1]; male, beagle, plasma, 1.5 mg/kg/day, male dogs, 1.5 mg/kg/day 1-h iv infusion, day 28, plasma, LC-MS, mean ± SD, n=5, read-out: AUC0-24) was 416 ± 209 ng·h/mL and the MIC50 (P. aeruginosa) was 1.4 µM (≈ 6.56 µg/mL). The MIC90 (P. aeruginosa) was 1.4 µM (≈ 6.56 µg/mL), the “Phos, inorganic phosphorus” value (Sprague Dawley rats; 10 mg/kg/day iv) was 1.96 ± 0.187 mmol/L and the “Phos, inorganic phosphorus” value (Sprague Dawley rats; 20 mg/kg/day iv) was 2.05 ± 0.26 mmol/L. The MIC50 (K. pneumoniae) was 1.4 µM (≈ 6.56 µg/mL), the MIC90 (K. pneumoniae) was 2.8 µM (≈ 13.1 µg/mL) and the “quantifiable plasma concentrations until, post-dose” value [2] was 1 h. The “quantifiable plasma concentrations until, post-dose” value ([2]; iv, 10 mg/kg/day) was 0.5 to 1 h, the “quantifiable plasma concentrations until, post-dose” value ([2]; iv, 20 mg/kg/day) was “up to 24 h” and the “mean AUCt ratio, low vs. high dose (theoretical ratio 2)” value ([2]; day 1) was 2.2. For the same molecule, the “mean Cmax ratio, low vs. high dose (theoretical ratio 2)” value ([2]; day 1) was 2.4 to 2.7, the “mean AUCt ratio, low vs. high dose (theoretical ratio 2)” value ([2]; day 7) was 9.8–14.0 and the “mean Cmax ratio, low vs. high dose (theoretical ratio 2)” value ([2]; day 7) was 2.8–7.2. The efficacy dose (mouse) was 5 mg/kg.
